Experimental data from US10583209B2, “Hyperpolarized 1-13C-1,1-bis(acetoxy(methyl))-2,2′-cyclopropane as metabolic marker for MR” (BRACCO IMAGING S.P.A., priority 2013, dated 2020).
Each block holds one compound with its values, some of them ahead of it.

Columns and labels:
[1] = Liquid-state 13C-NMR after dissolution of hyperpolarized sample (T1, polarization, hydrolysis); type: physicochemical; details: for T1, 37 C. 14.1 T: 13C longitudinal relaxation time, in s (unit assumed)
Protocol: C) The sample was dissolved in 5 ml phosphate buffer (40 mM, pH 7.3).

[2] = test system: Rat liver cancer cells (Morris7777); experiment: In cell DNP conversion in rat liver cancer cells, co-polarized with 1-13C-pyruvate; type: cell-based; details: for AUC (arb. Units), area under the metabolic curve: 10 million cells, approx. 3.5 mM of each substrate, 37 C
Protocol: (§1) The experiments were performed with a co-polarization of 1-^13C-1,1-Bis(acetoxy(methyl-d2))-2,2′-d4-cyclopropane and 1-^13C-pyruvic acid in equal amounts of compounds (30 μmol) resulting in a concentration of approx. 3.5 mM of each substrate in the experiments. The DNP preparation of 1-^13C-1,1-Bis(acetoxy(methyl-d2))-2,2′-d4-cyclopropane was performed as described in example 2 and the DNP preparation of 1-^13C-pyruvate was performed as described in WO 2006/011809. The two substrates were co-polarized without mixing the substrates.
Rat liver cancer cells (Morris777) were grown in RPMI+10% FBS and antibiotics. Following trypsin harvesting 10 million cells were redissolved in 500 μl phosphate buffer (PBS) and transferred to a 10 mm NMR tube and placed with connecting tubing in a 14.1 T magnet at 37 C.
(§2) Following dissolution in 5 ml phosphate buffer (40 mM pH 7.3) with addition of 2.5 μl NaOH to neutralize the pyruvic acid 2 ml of the substrate mixture was injected into 10 million cells in suspension. A series of 20 degree pulses every 2 s (56 scans in total) was acquired. The acquisition was started just before injection of the hyperpolarized substrate. Data are presented as metabolite signals as a function of time or as area under the curve of the metabolite signals.

[3] = test system: Human prostate cancer cells (PC-3); experiment: Carboxyl esterase CE-2 activity by in cell DNP conversion in PC-3 cells, co-polarized with 1-13C-pyruvate; type: cell-based; details: for AUC (arb. Units), area under the metabolic curve: 10 million cells, approx. 3.5 mM of each substrate, 37 C
Protocol: as §1
(§3) Human cancer cells (PC-3) were grown in RPMI+10% FBS and antibiotics. Following trypsin harvesting 10 million cells were redissolved in 500 μl phosphate buffer (PBS) and transferred to a 10 mm NMR tube and placed with connecting tubing in a 14.1 T magnet at 37° C.
as §2

[4] = DNP hyperpolarization in the solid state; type: physicochemical; details: DNP at 1.2 K, 3.35 T, microwave 93.900 GHz
Protocol: A) Finland radical, carboxylic acid form (0.7 mg, 0.67 μmol) was dissolved in 1-^13C-1,1-Bis(acetoxy(methyl-d2))-2,2′-d4-cyclopropane (45 μl, 50.7 mg, 0.27 mmol). To the solution was added a DMSO solution of the gadolinium complex ([alfa1,alfa4,alfa7-tris[(phenylmethoxy)methyl]-1,4,7,10-tetraazacyclododecane-1,4,7,10-tetraacetato(4-)]gadolinate(1-)]hydrogen) (0.75 mg of a 100 μmol/g solution). The concentration of radical and gadolinium were 15 mM and 1.6 mM respectively.
B) 30 μmol of a 1-^13C-1,1-Bis(acetoxy(methyl-d2))-2,2′-d4-cyclopropane sample made following the description in example 2.A was hyperpolarized. The composition was hyperpolarised under DNP conditions at 1.2 K in a 3.35 T magnetic field under irradiation with microwave (93.900 GHz). The polarization build-up constant was 750 s. The solid-state polarization was approx. 15%.

[5] = test system: Human prostate cancer cells (PC-3) in comparison to healthy human prostate cells (PNT-1A); experiment: In cell DNP conversion in PC-3 cells compared with healthy PNT-1A cells; type: cell-based; details: 10 million cells, approx. 3.5 mM substrate
Protocol: The experiments were performed with a polarization of 1-^13C-1,1-Bis(acetoxy(methyl-d2))-2,2′-d4-cyclopropane (30 μmol) resulting in a concentration of approx. 3.5 mM of this substrate in the experiments. The DNP preparation of 1-^13C-1,1-Bis(acetoxy(methyl-d2))-2,2′-d4-cyclopropane was performed as described in example 2.
as §3, with “Human prostate” for “Human”, “(PC-3) or immortalized human prostate healthy cells” for “(PC-3)”
as §2, with “7.3),” for “7.3) with addition of 2.5 μl NaOH to neutralize the pyruvic acid”

[6] = test system: prostate of healthy Copenhagen rats; experiment: DNP-MRI conversion in the healthy prostate of living rats; type: in vivo, rat; details: intravenous, about 0.4 mmol/kg, n=2 rats
Protocol: DNP-MRI experiment has been performed on 2 healthy Copenhagen rats, 9 weeks old, with average weight of 180 g.
0.24 mmol of a 1-^13C-1,1-Bis(acetoxy(methyl-d2))-2,2′-d4-cyclopropane sample prepared following the description in Example 2A was hyperpolarized according to the conditions reported in example 2.B. The solid sample was then dissolved in 5 ml TRIS buffer (100 mM, pH 7.7) to obtain a hyperpolarized solution with 48 mM substrate concentration and a pH of 7.
2.8 ml of the dissolved hyperpolarized 1-^13C-1,1-Bis(acetoxy(methyl-d2))-2,2′-d4-cyclopropane solution was injected intravenously at an injection rate of about 0.25 mL/s through a catheter placed in the tail vein of the animal, resulting in a total administered close of about 0.4 mmol/kg. A time series of 64 NMR spectra separated by 3 s and generated by 10° radiofrequency pulses was acquired starting from 15 s before injection of the hyperpolarized substrate. In order to follow the whole metabolic fate of the molecules and the decay of the hyperpolarized signal. The ^13C MR signal was collected by a 20 mm surface coil placed around the prostate. Spatial localization of the signal has been achieved by combining the limited sensitivity volume of the receiving coil with a slice selective spectroscopic sequence including a single gradient kept on only during the excitation period.

T1, 37 C. 14.1 T [1]: 27 ± 2
Compound: 1,3-ethyl acetoacetate

T1, 37 C. 14.1 T [1]: 35 ± 3
Compound: O=[13C](O)/C=C/[13C](=O)O [1,4-13C2-Fumarate]

T1, 37 C. 14.1 T [1]: 30 ± 3
Compound: O=[13C](O)CC(O)[13C](=O)O (centres unmarked) [1,4-13C2-malate]

T1, 37 C. 14.1 T [1]: 35 ± 4
Compound: CC([13CH3])CC(=O)C(=O)O (centres unmarked) [1-13C-2-ketoisocaproate]

T1, 37 C. 14.1 T [1]: 50 ± 3
Compound: C[13C](=O)O [1-13C-acetate]

T1, 37 C. 14.1 T [1]: 31 ± 2
Compound: C[C@H](N)[13C](=O)O [1-13C-alanine]

T1, 37 C. 14.1 T [1]: 20 ± 2
Compound: OC[C@H]1O[13CH](O)[C@H](O)[C@@H](O)[C@@H]1O (some centres unmarked) [1-13C-glucose]

T1, 37 C. 14.1 T [1]: 40 ± 3
Compound: C[C@H](O)[13C](=O)O [1-13C-lactate, reference compound]
AUC (arb. Units), area under the metabolic curve [2]: 282 arb. Units
AUC (arb. Units), area under the metabolic curve [3]: 3766 arb. Units

T1, 37 C. 14.1 T [1]: 45 ± 4
Compound: CC(=O)[13C](=O)O [1-13C-pyruvate]

Compound: [2H]C([2H])(O)[13C]1(C([2H])([2H])O)C([2H])([2H])C1([2H])[2H] [1-^13C-1,1-(dihydroxy(methyl-d2))-2,2′-d4-cyclopropane]
AUC (arb. Units), area under the metabolic curve [2]: 1559 arb. Units

Compound: [2H]C([2H])(OC(C)=O)[13C]1(C([2H])([2H])OC(C)=O)C([2H])([2H])C1([2H])[2H] [1-^13C-1,1-Bis(acetoxy(methyl-d2))-2,2′-d4-cyclopropane]
liquid state polarization ([1]; 12 s after dissolution): 13%
T1, 37 C. 14.1 T [1]: 85 ± 4
liquid state T1 ([1]; 14.1 T and 37 C, phosphate buffer 40 mM pH 7.3): approx. 85 s
hydrolysis in the dissolution process ([1]; dissolved in 5 ml phosphate buffer (40 mM, pH 7.3)): not hydrolysed
polarization build-up constant [4]: 750 s
solid-state polarization [4]: approx. 15%
metabolic conversion relative to hyperpolarized 1-13C pyruvate, comparing the maximum metabolite signal [2]: approx. 15 times
metabolic conversion relative to hyperpolarized 1-13C pyruvate, comparing the maximum metabolite signal [3]: more than 3 times
metabolic conversion in diseased cells (PC-3) relative to healthy cells (PNT-1A) [5]: approx. 6 times
uptake and metabolic conversion in rat prostate in vivo [6]: taken up by prostate cells and converted into its hyperpolarized metabolites

Compound: [2H]C([2H])(O)[13C]1(C([2H])([2H])OC(C)=O)C([2H])([2H])C1([2H])[2H] [1-^13C-1-(acetoxy(methyl-d2))-1-(hydroxy(methyl-d2))-2,2′-d4-cyclopropane]
AUC of metabolite relative to that of 1-13C-lactate [2]: ~30 times
AUC (arb. Units), area under the metabolic curve [2]: 43480 arb. Units
AUC of metabolite relative to that of 1-13C-lactate [3]: ~6 times
AUC (arb. Units), area under the metabolic curve [3]: 20550 arb. Units

T1, 37 C. 14.1 T [1]: 43 ± 4
Compound: [2H]C([2H])(O)[13C]([2H])([2H])[N+](C)(C)C [2-13C-1,1,2,2-d4-choline]

T1, 37 C. 14.1 T [1]: 22 ± 2
Compound: N[C@@H](CC[13C](N)=O)C(=O)O [5-13C-glutamine]

T1, 37 C. 14.1 T [1]: 15 ± 2
Compound: O[13CH2][13C@H]1O[13CH](O)[13C@H](O)[13C@@H](O)[13C@@H]1O (some centres unmarked) [13C6-glucose]
